Values of other authors, collected in paper PMC7904743, “WIDOCK: a reactive docking protocol for virtual screening of covalent inhibitors” (Journal of Computer-Aided Molecular Design, 2021).
Like-named read-outs stand apart in the source and are kept apart here.

Key:
[1] = thiol reactivity, cited from earlier work
NUDT7 = conditions: protein labeling at 200 μM; experimental actives if % labeling higher than 50%; cited from earlier work
OTUB2 = conditions: experimental actives if % labeling higher than 50%; cited from earlier work
[2] = natural log of average rate constant k
[3] = natural logarithm of average rate constant

Row | SMILES | ln(avg k) [1, 2] | ln(avg k) [1, 3] | NUDT7 % labeling (NUDT7) | OTUB2 % labeling (OTUB2)
1 | CC1(c2ccccc2)NC(=O)N(NC(=O)CCl)C1=O (stereo not drawn) [PCM-0102428, CC1(c2ccccc2)NC(=O)N(NC(=O)CCl)C1=O] | -17.653 | -17.653 | 0% | 0%
2 | CC(C)c1cccc(NC(=O)CCl)c1 [PCM-0102429, CC(C)c1cccc(NC(=O)CCl)c1] | -15.994 | -15.994 | 10% | 23%
3 | O=C(CCl)NNC(=O)c1ccc(F)cc1 [PCM-0102430, O=C(CCl)NNC(=O)c1ccc(F)cc1] | -17.459 | -17.459 | 0% | 31%
4 | Cc1cc(CNC(=O)CCl)cc(C)c1O [PCM-0102431, Cc1cc(CNC(=O)CCl)cc(C)c1O] | -16.592 | -16.592 | 0% | 64%
5 | CCC1CN(C(=O)CCl)CCO1 (stereo not drawn) [PCM-0102436, CCC1CN(C(=O)CCl)CCO1] | -15.658 | -15.658 | 0% | 0%
6 | CC(c1ccc(F)c(F)c1)N(C)C(=O)CCl (stereo not drawn) [PCM-0102438, CC(c1ccc(F)c(F)c1)N(C)C(=O)CCl] | -16.135 | -16.135 | 14% | 8%
7 | N#Cc1c(NC(=O)CCl)sc2c1CCC2 [PCM-0102452, N#Cc1c(NC(=O)CCl)sc2c1CCC2] | -16.077 | -16.077 | 0% | 7%
8 | O=C(CCl)NCC(F)(F)F [PCM-0102456, O=C(CCl)NCC(F)(F)F] | -18.378 | -18.378 | 0% | 0%
9 | O=C(CCl)Nc1nc2c(s1)CCC2 [PCM-0102457, O=C(CCl)Nc1nc2c(s1)CCC2] | -15.357 | -15.357 | 37% | 0%
10 | N#CC1(NC(=O)CCl)CCCCCC1 [PCM-0102465, N#CC1(NC(=O)CCl)CCCCCC1] | -16.080 | -16.080 | 0% | 0%
11 | O=C(CCl)N1CCN(S(=O)(=O)c2ccccc2)CC1 [PCM-0102468, O=C(CCl)N1CCN(S(=O)(=O)c2ccccc2)CC1] | -15.364 | -15.364 | 0% | 8%
12 | O=C(CCl)N=c1sccn1Cc1ccccc1 [PCM-0102469, O=C(CCl)N=c1sccn1Cc1ccccc1] | -15.583 | -15.583 | 0% | 11%
13 | N#CCN(C(=O)CCl)c1ccccc1 [PCM-0102471, N#CCN(C(=O)CCl)c1ccccc1] | -15.586 | -15.586 | 0% | 19%
14 | O=C(CCl)N1CCNCC1 [PCM-0102476, O=C(CCl)N1CCNCC1] | -17.059 | -17.059 | 0% | 0%
15 | CC(c1ccccc1)N(C)C(=O)CCl (stereo not drawn) [PCM-0102478, CC(c1ccccc1)N(C)C(=O)CCl] | -16.049 | -16.049 | 10% | 0%
16 | O=C(CCl)N1CCC(Cc2ccccc2)CC1 [PCM-0102492, O=C(CCl)N1CCC(Cc2ccccc2)CC1] | -16.081 | -16.081 | 18% | 18%
17 | O=C(CCl)NC(=O)NCc1ccco1 [PCM-0102494, O=C(CCl)NC(=O)NCc1ccco1] | -16.128 | -16.128 | 0% | 0%
18 | NC(=O)C1CCCN(C(=O)CCl)C1 (stereo not drawn) [PCM-0102495, NC(=O)C1CCCN(C(=O)CCl)C1] | -15.454 | -15.454 | 0% | 0%

Row | SMILES | ln(avg k) [1, 2] | ln(avg k) [1, 3] | NUDT7 % labeling (NUDT7) | OTUB2 % labeling (OTUB2)
19 | O=C(CCl)NCc1cccnc1 [PCM-0102497, O=C(CCl)NCc1cccnc1] | -17.127 | -17.127 | 0% | 5%
20 | CC12CCC(CC1=NNC(=O)CCl)C2(C)C (stereo not drawn) [PCM-0102498, CC12CCC(CC1=NNC(=O)CCl)C2(C)C] | -15.811 | -15.811 | 0% | 0%
21 | Cc1cc(NC(=O)CCl)no1 [PCM-0102500, Cc1cc(NC(=O)CCl)no1] | -15.955 | -15.955 | 0% | 35%
22 | Cc1nn(-c2ccccc2)c(C)c1NC(=O)CCl [PCM-0102501, Cc1nn(-c2ccccc2)c(C)c1NC(=O)CCl] | -16.489 | -16.489 | 9% | 9%
23 | CC(C)NC(=O)NC(=O)CCl [PCM-0102504, CC(C)NC(=O)NC(=O)CCl] | -16.238 | -16.238 | 0% | 0%
24 | O=C(CCl)Nc1ccc(Br)cc1Cl [PCM-0102505, O=C(CCl)Nc1ccc(Br)cc1Cl] | -16.521 | -16.521 | 59% | 7%
25 | O=C(CCl)Nc1ccccc1I [PCM-0102509, O=C(CCl)Nc1ccccc1I] | -16.748 | -16.748 | 0% | 0%
26 | O=C(CCl)NNC(=O)c1ccccc1F [PCM-0102510, O=C(CCl)NNC(=O)c1ccccc1F] | -17.412 | -17.412 | 0% | 52%
27 | Cc1ccc([N+](=O)[O-])c(NC(=O)CCl)c1C [PCM-0102511, Cc1ccc([N+](=O)[O-])c(NC(=O)CCl)c1C] | -16.700 | -16.700 | 15% | 7%
28 | O=C(CCl)N1CCCC1c1ccc2c(c1)OCCCO2 (stereo not drawn) [PCM-0102512, O=C(CCl)N1CCCC1c1ccc2c(c1)OCCCO2] | -15.497 | -15.497 | 88% | 0%
29 | O=C(CCl)N1CCCCC1 [PCM-0102514, O=C(CCl)N1CCCCC1] | -16.289 | -16.289 | 0% | 0%
30 | CC(C)N(CC(F)(F)F)C(=O)CCl [PCM-0102516, CC(C)N(CC(F)(F)F)C(=O)CCl] | -17.383 | -17.383 | 0% | 0%
31 | CNC(=O)C1CCCN1C(=O)CCl (stereo not drawn) [PCM-0102518, CNC(=O)C1CCCN1C(=O)CCl] | -16.106 | -16.106 | 0% | 0%
32 | CC(C)c1ccc(NC(=O)CCl)cc1 [PCM-0102532, CC(C)c1ccc(NC(=O)CCl)cc1] | -15.987 | -15.987 | 18% | 33%
33 | CNC(=O)NC(=O)CCl [PCM-0102534, CNC(=O)NC(=O)CCl] | -16.522 | -16.522 | 0% | 0%
34 | CC(=O)N1CCN(C(=O)CCl)CC1 [PCM-0102535, CC(=O)N1CCN(C(=O)CCl)CC1] | -15.085 | -15.085 | 6% | 0%
35 | CC(C)(C)c1cc(NC(=O)CCl)n(-c2ccccc2)n1 [PCM-0102536, CC(C)(C)c1cc(NC(=O)CCl)n(-c2ccccc2)n1] | -15.955 | -15.955 | 0% | 14%
36 | O=C(CCl)NCc1ccccc1 [PCM-0102538, O=C(CCl)NCc1ccccc1] | -16.796 | -16.796 | 0% | 28%
